This is an account of results in patent publication US11260050B2, “Combination of cotinine plus antioxidant for treatment-resistant depression and correction of astrocytes functional deficit induced by depression and other neuropathological” (UNIVERSIDAD SAN SEBASTIAN, priority 2017, dated 2022).

In data set [1] the test system is restrained mice. The experiment in a line: Novel object recognition after chronic restraint stress (Example 2). The data set is classed as in vivo, C57BL/6 male mice. The note with it: stressed mice, IN cotinine vs vehicle. The procedure:
Mice between 2-3 months of age after one week of acclimatization were randomly divided into two groups. Stressed mice were subjected to restraint stress. Control (non-restrained) mice were allowed to move freely during this period. After the stress exposure period, mice were divided into three experimental groups: 1) Non-restrained mice treated with vehicle (PBS, pH 7.4) serving as unstressed controls (n=8); 2) Restrained mice (RS) treated with vehicle (n=8); 3), RS mice treated with 24 μl of a cotinine solution (10 mg/ml in PBS, pH 7.4) via intranasal route of administration (n=6). Treatments were administered daily until euthanasia. After two weeks of treatments mice were behaviorally tested and euthanized (FIG. 10)
Intranasal delivery was performed as previously described (Hanson and Frey, 2007). Mice at 2-3 months of age were hand-restrained, positioned in a supine position, and administered two 12 μl drops of cotinine solution (10 mg/ml in PBS), or PBS alone, into both nares. Mice were given an extra 12 μl treatment drop if the mouse expelled out the solution. Mice were kept in the supine posture for 5 seconds after delivery to facilitate the delivery. […]
The NOR test starts with a habituation step that consists in putting each mouse to freely explore an open and empty testing arena (40 cm×40 cm×35 cm) for 10 min. […] The time exploring the objects was recorded during 5 min in both steps. […]

Data set [2] has as its system calcineurin A. The experiment in a line: Western blot of calcineurin A in the hippocampus (Example 4). The data set is classed as in vivo, Mice C57BL/6. To be noted: conditioned mice after extinction; vs PBS-treated conditioned mice. The protocol:
Three-month-old mice (n=5-6/condition) were weighed and assigned to treatment groups. Mice were treated with vehicle or drugs, starting two h after fear conditioning and daily after behavioral testing until euthanasia. Mice received daily treatments with 1. PBS (phosphate buffer saline, pH 7.4) via intranasal; 2. Cotinine (10 mg/ml) dissolved in PBS via intranasal (IN Cot, 24 μl); 3. Krill oil dissolved in PBS, via intranasal (48 mg/ml, 24 μl); 4. Cotinine (10 mg/ml) plus krill oil dissolved in PBS, via intranasal (48 mg/ml, 24 μl); 5. […] The dose of cotinine was ten times lower than the dose of oral cotinine promoting fear extinction in C57BL/6 mice.
After the behavioral testing, mice from all treatment groups were euthanized via cervical dislocation by a well-trained investigator. Brain regions of interest were dissected and stored at −20° C. for protein analyses. Each brain was divided into two parts, left and right hemispheres. […] The protein concentration of the supernatants was measured using the Bio-Rad protein assay (Bio-Rad, Hercules, Calif., USA). […] Membranes were washed with TBST and incubated with HRP-conjugated secondary antibodies (Bio-Rad) for 1 h at RT, washed with TBST and TBS, and images were acquired using My ECL imaging system and analyzed using the NIH Image J software.
A general note: Immunoblotting shows a protein as a band on a membrane.

Data set [3] has as its system mice subjected to fear conditioning. Description: Novel object recognition after fear conditioning (Example 1, Experiment 3). The note with it: FC mice, IN post-treatment. The format is in vivo, C57BL/6 mice. The procedure: Mice were treated via IN 2 hours after fear conditioning and continuously until euthanasia.
Mice (n=5-6/condition) received daily treatments with 1. PBS (phosphate buffer saline, pH 7.4) via intranasal (2×12 μl/nostril), 2. Cotinine dissolved in PBS via intranasal (Cot IN, 10 mg/ml, 2×12 μl/nostril); 3. Cotinine+krill oil both dissolved in PBS via intranasal (Cot IN, 10 mg/ml+KO, 48 mg/ml, 2×12 μl/nostril).
Contextual FC was performed as described. The conditioning chamber used is surrounded by a sound-attenuating box with a camera connected to freeze frame software (MED Associates Inc.), also equipped to provide a background white noise (72 dB). The conditioning chamber (33 cm×20 cm×22 cm) contains in one side a speaker and in the opposite slide has a 24V light. The chamber has a 36-bar insulated shock grid floor. […] Freezing behavior that is defined as the absence of all movement except the one needed for breathing was assessed using the FreezeView Software (MED Associates Inc.).
After a habituation step in the OF arena, each mouse was individually placed in the apparatus containing two identical objects located equidistant to each other (familiarization phase) and left to explore the objects for 5 min. […] The time exploring the two objects was recorded during 5 min. […]

In data set [4] the test system is mice. To be noted: absence of stress, cotinine treatment for up to eight months; cited from earlier work.

On to `CN1C(=O)CC[C@H]1c1cccnc1` [Cotinine, (5S)-1-methyl-5-(3-pyridyl) pyrrolidin-2-one], for which the “exploration index for the new object (NOR)” value in data set [1] is on record as “increase in the exploration index when compared to vehicle-treated stressed mice but the difference did not reach statistical significance”. Moreover, in data set [1] (p<0.05), the “number of entries to the novel object area (NOR)” value is “significantly higher number of entries to the novel object area”. Besides, the “calcineurin A levels in the hippocampus” value in data set [2] was “significantly different from PBS-treated conditioned mice”. In data set [3] (Cotinine p<0.05, Cotinine+KO p<0.01), the “number of entries to the new object area (NOR)” value is “higher number of entries to the new object area than PBS-treated FC mice”. Further, the “time exploring the new object (NOR)” value in data set [3] (both p<0.05) is listed as “spent more time than PBS-treated FC mice”. Also, the “sensory motor abilities or anxiety” value in data set [4] is “did not induce significant differences in sensory motor abilities or anxiety”.
